Experiment [1] has as its system Hep3B. Description: High-throughput calcein AM cytotoxicity assay, Hep3B. It counts as cell-based, human. To be noted: Hep 3B cells, read-out: IC50, Hep 3B. An excerpt: (§1) Standard errors are depicted with error bars.
The target in experiment [2] is T1, Na+/K+-ATPase (Homo sapiens, UniProt P05023).
T1 construct: endogenous in cells; host or cells: HEK-293
Description: Non-radioactive rubidium ion uptake assay, HEK-293 cells. It is filed as cell-based. As to conditions: read-out: Na+/K+-ATPase Inhibition IC50. The method, then:
Na/K-ATPase Assays. Inhibition of Na^+/K^+-ATPase on HEK-293 cells and CHO-K1 cells by the library hits was determined by Aurora Biomed, Inc. using a high-throughput non-radioactive rubidium ion uptake assay. Experiments were conducted in duplicate using three different concentrations. Within each experiment, percent inhibition values at the three concentrations were expressed as the percent reduction of the maximum absorption signal observed for a 0 nM control. IC50 values were determined using the following formula: IC50=[(50−low %)/(high %−low %)]×(high conc.−low conc.)+low conc.
To assess how these structural modifications impact the ability of library members to inhibit Na^+/K^+-ATPases, a fundamental activity of cardiac glycosides (Paula, S., et al., (2005) Biochemistry 44, 498-510), library hits 5β, 15β, 23β, 27β, 33β, 40β, and digitoxin (1) were submitted to a non-radioactive rubidium uptake assay to gauge Na^+/K^+-ATPase inhibition in both […] human embryonic kidney cells and CHO-K1 hamster ovary cells (Gill, S. et al., (2004) ASSAY and Drug Development Technologies 2, 535-542).

Experiment [3] has as its system MCF7. Briefly: High-throughput calcein AM cytotoxicity assay, MCF7. It is filed as cell-based, human. To be noted: read-out: IC50, MCF7.
Description: as §1

The subject of experiment [4] is NCI/ADR-RES. Briefly: Cell titer-glo cytotoxicity assay, NCI/ADR-RES. It counts as cell-based, human. The text has this:
FIG. 7 is a graphical summary of the results of the IC50 data from cytotoxicity assays. […] In the assay, live cells are quantified by measuring the luminescent signal resulting from the reaction between cellular ATP and luciferin to form oxyluciferin. The IC50 value for each compound represents at least four replicates of dose-response experiments conducted over six concentrations at two-fold dilutions.
The anticancer activities of ten panel analogues (3a-c,e,f and 4a-c,e,f) and digitoxin (1) were assessed using a high-throughput cytotoxicity assay on four human cancer cell lines, (FIG. 7) representing lung, colorectal, and ovarian carcinomas, as well as NCI/ADR-RES, a drug-resistant ovarian carcinoma line (For years, NCI/ADR-RES cells have been misidentified as drug-resistant MCF-7 breast adenocarcinoma cells, but recently this line has been shown definitively to be a drug-resistant line derived from OVCAR-8 ovarian adenocarcinoma cells. Liscovitch, M. et al., Cancer Lett. (2007) 245, 350-352.
All cell lines were maintained as previously reported (Langenhan, J. M. et al., Proc. Natl. Acad. Sci. (2005) 102, 12305-12310.) Cells were harvested by trypsinization using 0.25% trypsin and 0.1% EDTA and then counted in a Cellometer Auto T4 cell counter (Nexcelom, inc), before dilution for assay plating. Cell plating, compound handling and assay set up were performed as previously reported^1 except for the cells were plated in 50 μL volumes in 384 well clear bottom, tissue culture plates (Corning-Costar, Inc). Compounds were added from the 384-well compound stock plates at a 1:100 dilution using a Biomek FX liquid handler equipped with a 384 channel head (Beckman Coulter, Inc.). Cell titer-glo reagent (15 μL) (Promega Corporation, Inc.) was added and incubated for 10 min at room temperature with gentle agitation to lyse the cells. Each plate was read for luminescence. […] IC50 values were determined using XLFit 4.0 as previously reported (see Table 7).
In general terms: ATP-based viability assays read luminescence as a measure of living cells.

Among the data in US8507411B2, “Neoglycorandomization and digitoxin analogs” (priority 2004, dated 2013) are IC50 values, retold here.

Like-named read-outs stand apart in the source and are kept apart here.

Take `CON([C@H]1CC[C@@]2(C)[C@H](CC[C@@H]3[C@@H]2CC[C@]2(C)[C@@H](C4=CC(=O)OC4)CC[C@]32O)C1)[C@@H]1O[C@H](CO)[C@@H](O)[C@H](O)[C@@H]1O` [27β, D-mannoside]: the IC50 in experiment [1] was 0.4 µM; in experiment [2], > 200 µM; in experiment [3] (MCF7 cells) it was 1.7 µM.
As to `CON([C@H]1CC[C@@]2(C)[C@H](CC[C@@H]3[C@@H]2CC[C@]2(C)[C@@H](C4=CC(=O)OC4)CC[C@]32O)C1)[C@H]1OC[C@H](O)[C@H](O)[C@@H]1O` [5β, L-riboside], the IC50 was 0.059 µM in experiment [1]; 0.045 µM in experiment [4] (Cell titer-glo, read-out: IC50); > 300 µM in experiment [2]; 0.19 µM in experiment [3] (MCF7 cells).
For `CON([C@H]1CC[C@@]2(C)[C@H](CC[C@@H]3[C@@H]2CC[C@]2(C)[C@@H](C4=CC(=O)OC4)CC[C@]32O)C1)[C@H]1OC[C@H](O)[C@@H](O)[C@@H]1O` [23β, L-xyloside], the IC50 is 0.5 µM in experiment [1]; 0.072 µM in experiment [4] (Cell titer-glo, read-out: IC50); > 300 µM in experiment [2]; 0.23 µM in experiment [3] (MCF7 cells).
Turning to `C[C@H]1O[C@@H](O[C@H]2[C@@H](O)C[C@H](O[C@H]3[C@@H](O)C[C@H](O[C@H]4CC[C@@]5(C)[C@H](CC[C@@H]6[C@@H]5CC[C@]5(C)[C@@H](C7=CC(=O)OC7)CC[C@]65O)C4)O[C@@H]3C)O[C@@H]2C)C[C@H](O)[C@@H]1O` [digitoxin], the IC50 in experiment [1] (Homo sapiens, Hep3B) was 0.22 µM; in experiment [4] (Homo sapiens), 0.069 µM; in experiment [2] it was 75.4 ± 0.5 µM; in experiment [3] (Homo sapiens, MCF7, MCF7 cells), 0.32 µM.
